From patent US8202863B2 (Aventis Pharmaceuticals Inc., priority 2005, dated 2012)

target: T1, Hematopoietic PGD2 Synthase (Homo sapiens, UniProt O60760); assay: Fluorescence Polarization Assay (Assay 1); format: binding; details: assigned
Excerpt: (§1) The compounds of the present invention can be tested for enzymatic inhibiting activity against PGD2 Synthase according to either one of the following assays.
(§2) Assay 1: Fluorescence Polarization Assay
(§3) As described in PCT publication WO 2004/016223, Example II.

T1 sequence (O60760 whole entry): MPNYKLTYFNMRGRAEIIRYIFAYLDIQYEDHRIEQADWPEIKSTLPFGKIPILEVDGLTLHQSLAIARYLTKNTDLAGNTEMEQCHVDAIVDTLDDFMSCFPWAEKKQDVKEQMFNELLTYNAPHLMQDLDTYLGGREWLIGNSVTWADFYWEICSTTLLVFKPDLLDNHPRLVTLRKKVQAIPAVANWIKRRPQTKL

Compound | IC50 [nM]
O=C(NCCN1CCNC1=O)c1cnc(-c2ccccc2)nc1 [Example 33, 2-Phenyl-pyrimidine-5-carboxylic acid [2-(2-oxo-imidazolidin-1-yl)-ethyl]-amide] | 32
O=C(NC1CCN(Cc2ncc[nH]2)CC1)c1cnc(-c2ccccc2)nc1 [Example 9] | 2
O=C(Nc1ccc2[nH]ncc2c1)c1cnc(-c2ccccc2)nc1 [Example 83, 2-Pheny-pyrimidine-5-carboxylic acid (1H-indazol-5-yl)-amide] | 23
O=C(Nc1ccccc1)c1cnc(C2CCCCC2)nc1 [Example 114, 2-Cyclohexyl-pyrimidine-5-carboxylic acid phenylamide] | 4960
O=C(NCc1ccc(-c2cnns2)cc1)c1cnc(-c2ccccc2)nc1 [Example 84] | 6.5
O=C(NCCc1c[nH]cn1)c1cnc(-c2ccccc2)nc1 [Example 34, 2-Phenyl-pyrimidine-5-carboxylic acid [2-(1H-imidazol-4-yl)-ethyl]-amide] | 35
O=C(Nc1ccc2c(c1)CS(=O)(=O)N2)c1cnc(-c2ccccc2)nc1 [Example 8, 2-Phenyl-pyrimidine-5-carboxylic acid (2,2-dioxo-2,3-dihydro-1H-2lamda*6*-benzo[c]isothiazol-5-yl)-amide] | 2.5
O=C(NCCc1ccc2c(c1)OCO2)c1cnc(-c2ccccc2)nc1 [Example 82, 2-Phenyl-pyrimidine-5-carboxylic acid (2-benzo[133]dioxol-5-yl-ethyl)-amide] | 2

target: T1, Hematopoietic PGD2 Synthase; assay: Fluorescence Polarization Assay or EIA assay (which one not stated); format: biochemical; details: assay not assigned in b678 (Fluorescence Polarization or EIA)
Method: as §1, §2, §3
Assay 2: Enzyme Immunoassay (EIA) Method
• 2. Dilute 2 μL of each above concentration of compound to 38 μL of reaction buffer in 96-well plates and mix. IV. Enzyme and Substrate Solution Preparation • 1. Preparation of 0.39 ng/μL enzyme solution (0.35 ng/μL at final after compound addition). • Mix 4 μL of 4 mg/mL human h-PGDS with 396 μL of reaction buffer (to give enzyme concentration 40 μg/mL). Add 46.8 μL of 40 μg/mL h-PGDS to 4.753 mL of reaction buffer to give a total volume of 4.8 mL • 2. Preparation of Substrate Solution (PGH2): Add 0.375 mL of 0.1 mg/mL of PGH2 to 1.625 mL acetone. V. Enzyme Reaction: • 1. Add 60 μL of enzyme solution to compound well and positive control (without compound) in U-bottom polypropylene plate on ice. • 2. Add 60 μL of reaction buffer and 6.6 μL of 5% DMSO in reaction buffer into negative control wells in the plate. • 3. Add 6.6 μL of diluted compound in reaction buffer to the compound wells and mix. • 4. Add 6.6 μL of 5% DMSO in reaction buffer to the positive control well. • 5. Incubate the plate in ice for at least 30 min. • 6. Add 20 μL of substrate (PGH2) solution to compound, negative and positive control wells in the U-bottom 96 well plate on ice. • 7. Dry the plate in cold room for about 25-28 min. • 8. Pipette 45 μL of enzyme solution (above) into 96-wells with dried PGH2 and mix 3 times. Incubate on the ice for 1 min. • 9. Add 45 μL of FeCl2 solution into each wells and mix. • 10. Add 90 μL of MOX solution and mix. • 11. Incubate for 30 min at 60° C. • 12. Dilute the samples 2500× with EIA buffer. VI. EIA assay • Perform the assay according to the procedure in EIA kit provided by Cayman. Total PGD2 levels (pg/mL) were determined in the samples by EIA kits (Caymen Chemical, Catalog No. 500151) Calculate amount of PGD2 as below • Calculated % Positive control according to the equation below; % Positive control=(Compound value−Negative control)/(Positive value-Negative control value)×100. % Positive control=(Compound value-Negative control)×100(Positive Value-Negative Control Value) • Compound value=PGD2 levels (pg/mL) obtained from the standard curve in EIA assay for the samples with compound • Negative control value=PGD2 levels (pg/mL) obtained from the standard curve in EIA assay for the samples without enzyme • Positive control value=PGD2 levels (pg/mL) obtained from the standard curve in EIA assay for the samples with enzyme but without compound • IC50s are determined by excel fit to get the x value when y=½Ymax using 4 parameter logistic model for the IC50 curves. Results

Compound | IC50 [nM]
O=C(NCc1cccc(S(=O)(=O)NCCc2c[nH]cn2)c1)c1cnc(-c2cccc(F)c2)nc1 [Example 60, 2-(3-Fluoro-phenyl)-pyrimidine-5-carboxylic acid 3-[2-(1H-imidazol-4-yl)-ethylsulfamoyl]-benzylamide] | 61
O=C(Nc1ccc2nc(CCN3CCCC3)oc2c1)c1cnc(-c2ccccc2)nc1 [Example 11, 2-Phenyl-pyrimidine-5-carboxylic acid [2-(2-pyrrolidin-1-yl-ethyl)-benzooxazol-6-yl]-amide] | 18
CCOP(=O)(CCCCNC(=O)c1cnc(-c2ccccc2)nc1)OCC [Example 99, {4-[(2-Phenyl-pyrimidine-5-carbonyl)-amino]-butyl)-phosphonic acid diethyl ester] | 23.5
CCOP(=O)(OCC)C(NC(=O)c1cnc(-c2ccccc2)nc1)c1ccccc1 (stereo not drawn) [Example 101, {Phenyl-[(2-phenyl-pyrimidine-5-carbonyl)-amino]-methyl)-phosphonic acid diethyl ester] | 48
CCOP(=O)(Cc1ccc(NC(=O)c2cnc(-c3ccccc3)nc2)cc1)OCC [Example 98] | 38
O=C(NCc1ccc2occc2c1)c1cnc(-c2ccccc2)nc1 [Example 90, 2-Pheny-pyrimidine-5-carboxylic acid (benzofuran-5-ylmethyl)-amide] | 7
Cc1nc(-c2ncc(C(=O)NC3CCOCC3)cn2)no1 [Example 77, 2-(5-Methyl-[1,2,4]oxadiazole-3-yl)-pyrimidine-5-carboxylic acid (tetrahydro-pyran-4-yl)-amide] | 514
O=C(NCc1ccc(N2CCOCC2)cc1)c1cnc(-c2ccccc2)nc1 [Example 87, 2-Pheny-pyrimidine-5-carboxylic acid 4-morpholin-4-ylbenzylamide] | 12
O=C(Nc1cc[nH]c(=O)n1)c1cnc(-c2ccccc2)nc1 [Example 29, 2-Phenyl-pyrimidine-5-carboxylic acid (2-oxo-1,2-dihydro-pyrimidin-4-yl)-amide] | 15
NC(=O)c1ccc(CNC(=O)c2cnc(-c3ccccc3)nc2)cc1 [Example 92, 2-Pheny-pyrimidine-5-carboxylic acid 4-carbamoyl-benzylamide] | 16

tested on: PGDS; assay: not given; details: literature report; cited from earlier work

Compound | PGDS inhibition
c1ccc(C(OC2CCN(CCCc3nn[nH]n3)CC2)c2ccccc2)cc1 [HQL-79] | weak PGDS inhibitor

tested on: guinea pig; assay: not given; details: guinea pig model; cited from earlier work

Compound | antiasthmatic effect
c1ccc(C(OC2CCN(CCCc3nn[nH]n3)CC2)c2ccccc2)cc1 [HQL-79] | antiasthmatic

tested on: rat; assay: not given; details: rat model; cited from earlier work

Compound | antiasthmatic effect
c1ccc(C(OC2CCN(CCCc3nn[nH]n3)CC2)c2ccccc2)cc1 [HQL-79] | antiasthmatic
